Reference: US20050090652A1, “Highly homogenous serum albumin as chiral selector” (priority 2002, published 2005)
Like-named read-outs stand apart in the source and are kept apart here.

Tests used:
[1] = target: T1, recombinant human serum albumin (rHA) immobilised on silica (Homo sapiens, UniProt P02768); conditions: pH 7.5
albumin = albumin (Homo sapiens, UniProt P02768); conditions: binding to albumin; Peters et al.; Kragh-Hansen 1990; cited from earlier work
[2] = target: T1, recombinant human serum albumin (rHA) immobilised on silica; experiment: Enantioselective HPLC analysis by the rHA-based column; conditions: 1-propanol/phosphate buffer (pH 7.5) 15/85 (v/v), 0.6 ml/min flow rate

albumin, sequence (P02768 25-609, species assumed): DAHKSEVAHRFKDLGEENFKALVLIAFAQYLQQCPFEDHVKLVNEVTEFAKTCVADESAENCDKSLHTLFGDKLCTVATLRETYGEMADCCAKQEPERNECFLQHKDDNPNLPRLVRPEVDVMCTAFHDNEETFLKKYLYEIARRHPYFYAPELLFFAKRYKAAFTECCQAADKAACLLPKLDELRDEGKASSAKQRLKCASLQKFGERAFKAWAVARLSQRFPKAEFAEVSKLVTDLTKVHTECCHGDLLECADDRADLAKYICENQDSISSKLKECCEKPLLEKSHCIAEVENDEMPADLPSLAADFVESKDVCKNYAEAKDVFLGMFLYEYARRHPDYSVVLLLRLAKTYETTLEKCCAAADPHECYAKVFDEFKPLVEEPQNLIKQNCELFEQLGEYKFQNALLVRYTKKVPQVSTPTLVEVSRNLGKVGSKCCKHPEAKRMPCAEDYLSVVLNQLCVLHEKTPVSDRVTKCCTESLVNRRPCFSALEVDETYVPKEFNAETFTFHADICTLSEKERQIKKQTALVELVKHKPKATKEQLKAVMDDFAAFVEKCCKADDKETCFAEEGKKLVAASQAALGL
T1 sequence (P02768 25-609): as the sequence (P02768 25-609, species assumed) above

| Compound | affinity relative to the other enantiomer (antipode) (albumin) | further results |
| --- | --- | --- |
| CC(C)CC(NC(=O)c1ccccc1)C(=O)O (racemic) [N-benzoyl-DL-leucine] |  | enantioselectivity (α) [1]: 2.8 |
| N[C@@H](Cc1c[nH]c2ccccc12)C(=O)O [L-tryptophan] | 100 fold |  |
| rac-lorazepam hemisuccinate |  | enantioselectivity (α) [2]: 5.3 |
| O=C(O)CCC(=O)O[C@@H]1N=C(c2ccccc2)c2cc(Cl)ccc2NC1=O [(S)-oxazepam-hemisuccinate] | 35 fold |  |
